“And” between values parts separate entries of the source, which are not always exact repeats. Identical values can stand only once. Residues, ends and D or L forms follow the SMILES beside them. No end group written: not given here. *: point of attachment. 5‑carboxyl‑2,2'‑bipyridine = O=C(c1ccc(-c2ccccn2)nc1)*
What was measured:
[1] = CD titration: dependence of [θ]222 on free metal ion concentration, CdCl2; format: binding; conditions: CdCl2, pH 8.0; peptide 5.9×10^-6M in 10 mM sodium borate, 0.5 mM mercaptoethanol, 21° C.
Description: (§1) FIG. 4 illustrates the dependence of mean residue molar ellipticity at 222 nm ([.THETA.]222 ×10^-3) of peptides SEQ ID NO's:2 AND 3 on the concentration of free metal ions when measured as described in Example 3A(2).
(§2) The peptide metal salt solution admixtures prepared as in Example 2A were subjected to CD analyses according to published procedures to measure the degree of stability induced by metal ion complexation with peptides. Greenfield et al., Biochem, 8:4108 (1969) and Johnson, Ann. Rev. Biophvs. Chem., 17:145 (1988). All CD data reported herein have an uncertainty of ±2 to 5% for a 100% helix, [θ]222 =-35,000, and are based on several CD measurements of both peptides SEQ ID NO's:2 and 3 in the presence and absence of metal ions in various TFE/H20 mixtures at -10° to 20° C.
(§3) Both Cu(II) and Zn(II) bound peptide SEQ ID NO:3 with similar affinities and increased the helical content to the same extent.

[2] = CD titration: dependence of [θ]222 on free metal ion concentration, ZnCl2; format: binding; conditions: CD analysis, ZnCl2
Description: as §1, §2, §3

[3] = Circular dichroism (CD) to measure degree of secondary structure (alpha-helicity); format: physicochemical; conditions: for helicity / θ: using Cu(II)
Method: ID No's. 3 and 4. The analysis was performed as described above.
Proton nuclear magnetic resonance spectra were recorded at 300MHz on Bruker AM300 spectrometer and are reported in parts per million (ppm) downfield from Me4 Si. Ultraviolet-visible spectra were recorded on Aviv Associates 14DS and Milton Roy Spectronic 3000 Array spectrometers. Circular dichroism measurements were made on Aviv Associates 62DS spectrometer equipped with a thermostable cell holder using 10, 1, and 0.1 mm Hellma quartz cells. All reported CD data have an uncertainty of ±2-5%. All ellipticity measurements are expressed as mean residue ellipticity, [θ], having the units deg·cm^2 ·dmol-^1.

[4] = Metal ion selectivity and relative affinities by CD analysis; format: binding; conditions: for metal ion(s) that preferentially stabilize the peptide: summary of Example 3A(2), 3A(3); for metal ions bound, order of affinity: peptide SEQ ID NO:11 at pH 6.0
Description: Metal ion selectivity is an expected consequence of site specific metal-ligand interaction. The extent of helical induction, to a first approximation, depends on the affinity of metal ion toward the ligands employed, and on the compatibility of metal ion geometry and coordination sphere with the alpha-helical conformation. Thus, although numerous metal ions can induce and stabilize alpha-helix formation, the metal ion having the greatest relative affinity for the ligands employed is preferred and can readily be determined. […]
Peptides, prepared as in Example 1, and admixed with various metal salt solutions as described in Example 2B, were subjected to CD analysis to characterize metal ion selectivity with respect to the position of the metal binding site in the alpha-helical sequence.

[5] = Heat denaturation assay to measure melting temperatures; format: physicochemical
Method: In order to assess differences in helix stability between the metal ion complexed and uncomplexed forms of peptides Seq. ID No's. 3 and 4, the conformational stability of each peptide in the presence and absence of transition metal ions was determined from heat denaturation studies according to published procedures. Pace et al., In Protein structure, p. 311., IRL Press, (1989). The analysis of the thermal denaturation curves afforded linear ΔG vs. T and van't Hoff plots. […] Complexed peptides Seq. ID No's.
Because tris-bipyridyl-metal ion coordination complexes are chiral and can form either a left-handed or a right-handed helix, two diastereomeric tri-helical structures can possibly be formed. The stereogenic environment of the ensuing parallel tri-helical topology as well as the geometrical constraints imposed by the overall C3 symmetry of the coordination complex was expected, however, to enforce a high degree of diastereoselectivity in the assembly process. The CD spectrum (in the region of 280 and 330 nm) of the peptide in the presence of Ni(II) indicated the formation of one diastereomer having a left-handed helical configuration. Such a behavior is also consistent with the expected left handed supercoil of the tri-helical metallopolypeptide. The analysis of the thermal denaturation curves for the metallopolypeptide in the presence of Ni(II) yielded linear ΔG vs T and van't Hoff plots.

[6] = Aqueous solubility of the peptide; format: physicochemical
Method: The peptide, in the absence of a metal ion, was readily soluble (up to about 2 mg/ml, 1.3 mM) in aqueous media at a pH value of from about 4 to about 9.

[7] = Concentration dependence of ellipticity at 222 nm, monomer-nmer equilibria; format: physicochemical; conditions: absence of added metal ions; nonlinear regression MINSQ
Method: Data (Δ) were analyzed according to monomer-.eta.mer equilibria using the equation below, where Pn, Pmon, and PT are the self-associated, monomeric, and total concentrations of the peptides, respectively, n is the degree of association, θmon is the ellipticity of the monomer, and θn is the ellipticity of the self-associated form of the peptide. The values of n=1.95, θmon =-10,100, θn =-27,900, and Kdiss =6.4×10^-4 were determined by the nonlinear regression program MINSQ. [formula]

[8] = with CdCl2 (solution 8, 7.3×10^-4 M), water, 4° C.
[9] = Ni(II) or Co(II) ions plus 150 mM NaCl
[10] = absence of any polyvalent metal ion, 7.4 μM in 5 mM sodium borate, pH 6.4, 21° C.
[11] = presence of Ni(II) or Co(II) ions, similar conditions (5 mM sodium borate, pH 6.4, 21° C.)

For CC(=O)N[C@@H](C)C(=O)N[C@@H](CCC(=O)O)C(=O)N[C@@H](C)C(=O)N[C@@H](C)C(=O)N[C@@H](C)C(=O)N[C@@H](CCCCN)C(=O)N[C@@H](CCC(=O)O)C(=O)N[C@@H](C)C(=O)N[C@@H](C)C(=O)N[C@@H](C)C(=O)N[C@@H](CCCCN)C(=O)N[C@@H](CS)C(=O)N[C@@H](C)C(=O)N[C@@H](C)C(=O)N[C@@H](C)C(=O)N[C@@H](Cc1c[nH]cn1)C(=O)N[C@@H](C)C(N)=O [peptide SEQ ID NO:2, Ac--Ala--Glu--Ala--Ala--Ala--Lys--Glu--Ala--Ala--Ala--Lys--Cys--Ala--Ala--Ala--His--Ala--CONH2] (Ac-AEAAAKEAAAKCAAAHA-NH2), the Kd [1] was 56 µM, the “effect of Zn(II) on helical content” value [2] was “no effect” and the “dependence of helicity on added NaF” value ([3]; NaF up to 250 mM, 5 mM sodium borate) was “independent of concentration of added NaF up to 250 mM”. For the same compound, the alpha-helicity ([3]; absence of metal ion (solution 7), water pH 6.65, 4° C.) was 54%, the “dependence of CD spectra on peptide concentration” value ([3]; presence and absence of metal ions, 0.5-70 μM) was “independent of the peptide concentration” and the alpha-helicity [3, 8] was “up to 90%”. The “θ222” value [3, 8] was -31,500, the metal ion selectivity ([4]; CD analysis, CdCl2 vs ZnCl2) was “Cd(II) selective” and the “metal ion(s) that preferentially stabilize the peptide” value [4] was “Cu(II) and Zu(II)”.
For CC(=O)N[C@@H](C)C(=O)N[C@@H](CCC(=O)O)C(=O)N[C@@H](C)C(=O)N[C@@H](C)C(=O)N[C@@H](C)C(=O)N[C@@H](CCCCN)C(=O)N[C@@H](Cc1c[nH]cn1)C(=O)N[C@@H](C)C(=O)N[C@@H](C)C(=O)N[C@@H](C)C(=O)N[C@@H](Cc1c[nH]cn1)C(=O)N[C@@H](CCC(=O)O)C(=O)N[C@@H](C)C(=O)N[C@@H](C)C(=O)N[C@@H](C)C(=O)N[C@@H](CCCCN)C(=O)N[C@@H](C)C(N)=O [peptide SEQ ID NO:4, Ac--Ala--Glu--Ala--Ala--Ala--Lys--His--Ala--Ala--Ala--His--Glu--Ala--Ala--Ala--Lys--Ala--CONH2] (Ac-AEAAAKHAAAHEAAAKA-NH2), the “CD spectrum, structure indicated” value ([3]; room temperature in water) was “random coil structure”, the “metal ions bound, order of affinity” value ([4]; CD analysis) was “Ni(II) and Cu(II) predominantly followed by Cd(II) then Zn(II)” and the “metal ion(s) that preferentially stabilize the peptide” value [4] was “Ni(II)”. For the same compound, the “melting temperature (Tm)” value [5] was -15.5 °C.
In the case of CC(=O)N[C@@H](C)C(=O)N[C@@H](Cc1c[nH]cn1)C(=O)N[C@@H](C)C(=O)N[C@@H](C)C(=O)N[C@@H](C)C(=O)N[C@@H](Cc1c[nH]cn1)C(=O)N[C@@H](CCC(=O)O)C(=O)N[C@@H](C)C(=O)N[C@@H](C)C(=O)N[C@@H](C)C(=O)N[C@@H](CCCCN)C(=O)N[C@@H](CCC(=O)O)C(=O)N[C@@H](C)C(=O)N[C@@H](C)C(=O)N[C@@H](C)C(=O)N[C@@H](CCCCN)C(=O)N[C@@H](C)C(N)=O [peptide SEQ ID NO:5, Ac--Ala--His--Ala--Ala--Ala--His--Glu--Ala--Ala--Ala--Lys--Glu--Ala--Ala--Ala--Lys--Ala--CONH2] (Ac-AHAAAHEAAAKEAAAKA-NH2), the “binding of Cd(II) or Zn(II)” value ([4]; CD analysis) is reported as “no significant binding”, the “metal ions bound, order of affinity” value ([4]; CD analysis) is reported as “Ni(II) and Cu(II) in descending order of affinity” and the “metal ion(s) that preferentially stabilize the peptide” value [4] is reported as “Ni(II)”.
With CC[C@H](C)[C@H](NC(=O)[C@H](Cc1ccc(O)cc1)NC(=O)[C@@H](NC(=O)[C@H](Cc1c[nH]cn1)NC(=O)CNC(=O)[C@@H]1CCCN1C(=O)[C@H](Cc1c[nH]cn1)NC(=O)[C@@H](NC(=O)[C@H](CO)NC(=O)[C@H](CC(C)C)NC(=O)[C@H](CS)NC(C)=O)C(C)C)[C@@H](C)O)C(=O)N[C@@H](CCC(N)=O)C(=O)N[C@@H](CS)C(N)=O [peptide SEQ ID NO:19] (Ac-CLSVHPGHTYIQC-NH2) the “CD spectrum, structure indicated” value ([3]; absence of added Zn, about 6.0×10^-6 M in Na borate, pH 7.5) was “random-coiled structure”, the “CD spectrum, structure indicated” value ([3]; one equivalent of Zn added) was “beta-turn structure” and the solubility ([6]; aqueous media, water, absence of a metal ion, pH about 4 to about 9) was ≥ 2000 µg/mL and ≥ 1300 µM. The “decrease of aqueous solubility in the presence of Zn” value ([6]; pH values greater than about 5.0) was “about 100 fold”.
With “-Gly-Glu-Leu-Ala-Glu-Gln-Lys-Leu-Glu-Gln-Ala-Leu-Gln-Lys-Leu-Ala ({5‑carboxyl‑2,2'‑bipyridine}-GELAEQKLEQALQKLA) [peptide of Example 4]” the alpha-helicity [3, 9] was 80%, the θ222 [3, 9] was -25,800 deg·cm2·dmol^-1 and the alpha-helicity [3, 10] was 30%. The θ222 [3, 10] was -10,000 deg·cm^2·dmol^-1, the alpha-helicity [3, 11] was “greater than 70%” and the θ222 [3, 11] was -23,400 degcm^2 dmol^-1. The “θmon, ellipticity of the monomer” value [7] was -10,100 and the “θn, ellipticity of the self-associated form” value [7] was -27,900.
In the case of “Ac--Ala--Ala--Xaa2 --Ala--Leu--Glu--Xaa2 --Gln--Ala--Lys--Ala--Leu--Lys--Glu--Ala--Ala--Gln--Lys--Ala--CONH2 [peptide SEQ ID NO:11, Xaa2 = (NH2)(CO2 H)CH(CH2)3 N(CH2 CO2 H)2]”, the helicity ([3]; 0° C.) is reported as “about 100%”, the θ ([3]; 0° C.) is reported as 35,600 and the helicity ([3]; 20° C.) is reported as “about 80%”. The θ ([3]; 20° C.) was 29,300, the “metal ions bound, order of affinity” value ([4]; CD analysis) was “Cu(II), Hg(II), Cd(II), Fe(II), Zn(II) and Pb(II) in descending order of affinity” and the “metal ion(s) that preferentially stabilize the peptide” value [4] was “Cu(II)”.
With “Ru(III)-peptide SEQ ID NO:3 complex: exchange-inert macrocyclic cis-[Ru(NH3)4 (L)2 ]^3+ complex of peptide SEQ ID NO:3 through two His residues at i and i+4 (AEAAAKEAAAKHAAAHA; Ru(III) tetraammine macrocyclic complex via two His)” the alpha-helicity ([3]; room temperature in water) was > 80%, the θ222 ([3]; room temperature in water) was -28,000 and the “melting temperature (Tm)” value [5] was 35 °C.

From patent US5408036A, “Isolated metallopolypeptide: compositions and synthetic methods” (The Scripps Research Institute, priority 1993, dated 1995)
